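Dose response: 5 concentrations. Exposure: 48 h. Format: 96-well plates. Endpoint: linear interpolation; highest concentration if not reached. GI50: concentration for 50% inhibition of growth.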 Active and inactive are the calls of the source. No stated cut-off is given here; in the data, active = GI50 up to about 1.1 µM and inactive = higher.
Assays:
Experiment in all cases: DTP human tumour cell line panel, 48 h
[1] = test system: A549
[2] = test system: 786-0
[3] = test system: SR
[4] = test system: SNB-19
[5] = test system: UACC-62
[6] = test system: NCI-H23
[7] = test system: NCI-H460
[8] = test system: OVCAR-8
[9] = test system: SN12C
[10] = test system: M14
[11] = test system: MDA-MB-435
[12] = test system: CAKI-1
[13] = test system: HL-60
[14] = test system: HCC 2998
[15] = test system: MCF7
[16] = test system: HCT-15
[17] = test system: A498
[18] = test system: SK-MEL-28
[19] = test system: TK-10
[20] = test system: U-251

Row | SMILES | GI50 [1] | GI50 [2] | GI50 [3] | GI50 [4] | GI50 [5] | GI50 [6] | GI50 [7] | GI50 [8] | GI50 [9] | GI50 [10] | GI50 [11] | GI50 [12] | GI50 [13] | GI50 [14] | GI50 [15] | GI50 [16] [µM] | GI50 [17] | GI50 [18] | GI50 [19] | GI50 [20]
1 | O[C@]12C=C(c3nccc4c3[nH]c3ccccc34)[C@@H]3CCN(CCCC/C=C\CC1)C[C@@]31CC3/C=C\CCCCN3[C@H]12 (stereo not given in full) | 0.36 µM (active) | 0.13 µM (active) | 0.311 µM (active) | 1.23 µM (inactive) | 0.0733 µM (active) | 0.213 µM (active) | 0.191 µM (active) | 0.331 µM (active) | 0.44 µM (active) | 0.371 µM (active) | 0.366 µM (active) | 0.541 µM (active) | 0.248 µM (active) | 0.284 µM (active) | 0.478 µM (active) | 0.288 | 0.364 µM (active) | 0.615 µM (active) | 0.378 µM (active) | 0.355 µM (active)
2 | N/C(=N\Nc1cccc(Cl)c1)c1cccnc1 | 52.7 µM (inactive) | 38.2 µM (inactive) | 26 µM (inactive) | 58.9 µM (inactive) | 22.8 µM (inactive) | 43.5 µM (inactive) | 35.2 µM (inactive) | > 78.3 µM (inactive) | 60 µM (inactive) | 17.1 µM (inactive) | 2.72 µM (inactive) | 3.49 µM (inactive) | 4.28 µM (inactive) | 36 µM (inactive) | 38.7 µM (inactive) | 39.6 | 22.2 µM (inactive) | 72.8 µM (inactive) | 28.6 µM (inactive) | 41.8 µM (inactive)
3 | CC(=O)Nc1ccc2c3c(cc(O)c2c1)N(C(=O)CCCCCC(=O)N1CC(CCl)c2c1cc(O)c1cc(NC(C)=O)ccc21)CC3CCl (stereo not given) | 0.0176 µM (active) | < 0.01 µM (active) | < 0.01 µM (active) | < 0.01 µM (active) | < 0.01 µM (active) | < 0.01 µM (active) | < 0.01 µM (active) | < 0.0104 µM (active) | < 0.012 µM (active) | < 0.01 µM (active) | 0.0191 µM (active) | 0.0123 µM (active) | 0.115 µM (active) | 0.0211 µM (active) | < 0.01 µM (active) | 0.377 | 0.0109 µM (active) | 0.0547 µM (active) | 0.169 µM (active) | < 0.01 µM (active)
4 | O=C(N/N=C\c1ccc([N+](=O)[O-])s1)c1ccncc1 | 16.7 µM (inactive) | 6.67 µM (inactive) | 5.65 µM (inactive) | 33.4 µM (inactive) | 10.7 µM (inactive) | 16.2 µM (inactive) | 6.65 µM (inactive) | 14.7 µM (inactive) | 8.65 µM (inactive) | 11.6 µM (inactive) | 18.4 µM (inactive) | 27.9 µM (inactive) | 2.38 µM (inactive) | 5.71 µM (inactive) | 3.02 µM (inactive) | 5.27 | 23.4 µM (inactive) | 35.3 µM (inactive) | 23.1 µM (inactive) | 17.7 µM (inactive)
5 | Cn1ncc(NCCn2cnc3c2c(=O)n(C)c(=O)n3C)c(Cl)c1=O | > 100 µM (inactive) | > 100 µM (inactive) | > 100 µM (inactive) | > 100 µM (inactive) | > 100 µM (inactive) | > 100 µM (inactive) | > 100 µM (inactive) | > 100 µM (inactive) | > 100 µM (inactive) | > 100 µM (inactive) | > 100 µM (inactive) | > 100 µM (inactive) | > 100 µM (inactive) | > 100 µM (inactive) | > 100 µM (inactive) | > 100 | > 100 µM (inactive) | > 100 µM (inactive) | > 100 µM (inactive) | > 100 µM (inactive)
6 | Clc1ccc(C(c2ccc(Cl)cc2)N2CCNCC2)cc1 | 2.74 µM (inactive) | 1.77 µM (inactive) | 1.75 µM (inactive) | 5.13 µM (inactive) | 1.77 µM (inactive) | 5.24 µM (inactive) | 2.05 µM (inactive) | 2.07 µM (inactive) | 2.89 µM (inactive) | 1.73 µM (inactive) | 1.93 µM (inactive) | 4.39 µM (inactive) | 1.86 µM (inactive) | 1.46 µM (inactive) | 1.91 µM (inactive) | 2.58 | 1.78 µM (inactive) | 1.81 µM (inactive) | 1.64 µM (inactive) | 2.02 µM (inactive)
7 | CC1CN=C(Nc2ccccc2)S1 (stereo not given) | > 100 µM (inactive) | > 100 µM (inactive) | > 100 µM (inactive) | > 100 µM (inactive) | > 100 µM (inactive) | > 100 µM (inactive) | > 100 µM (inactive) | > 100 µM (inactive) | > 100 µM (inactive) | > 100 µM (inactive) | > 100 µM (inactive) | > 100 µM (inactive) | > 100 µM (inactive) | > 100 µM (inactive) | > 100 µM (inactive) | > 100 | > 100 µM (inactive) | > 100 µM (inactive) | > 100 µM (inactive) | > 100 µM (inactive)
8 | CC(=O)N1C(CCc2ccccc2)CC(C)(C=O)C1Cc1ccc(O[Si](C(C)C)(C(C)C)C(C)C)cc1 (stereo not given) | 3.87 µM (inactive) | 2.38 µM (inactive) | 2.09 µM (inactive) | 4.83 µM (inactive) | 4.68 µM (inactive) | 5.53 µM (inactive) | 2.96 µM (inactive) | 4.39 µM (inactive) | 3.29 µM (inactive) | 1.85 µM (inactive) | 2.63 µM (inactive) | 3.05 µM (inactive) | 1.76 µM (inactive) | 1.31 µM (inactive) | 2.05 µM (inactive) | 3.03 | 2.87 µM (inactive) | 6.32 µM (inactive) | 3.68 µM (inactive) | 3.12 µM (inactive)
9 | C=C1CC2(C[C@@H](c3ccccc3)O[C@@H](c3ccccc3)C2)OC1=O (stereo not given in full) | 5.89 µM (inactive) | 2.59 µM (inactive) | 2.3 µM (inactive) | 15.2 µM (inactive) | 2.51 µM (inactive) | 2.64 µM (inactive) | 10.2 µM (inactive) | 2.49 µM (inactive) | 3.01 µM (inactive) | 1.77 µM (inactive) | 2.99 µM (inactive) | 1.97 µM (inactive) | 0.44 µM (active) | 6.7 µM (inactive) | 2.13 µM (inactive) | 2.54 | 9.95 µM (inactive) | 1.86 µM (inactive) | 1.8 µM (inactive) | 15.4 µM (inactive)
10 | Fc1ccc(Nc2nc(Cl)c3nc[nH]c3n2)cc1Cl | > 100 µM (inactive) | 86.9 µM (inactive) | 86.1 µM (inactive) | > 100 µM (inactive) | > 100 µM (inactive) | 79.6 µM (inactive) | 58.9 µM (inactive) | 24.9 µM (inactive) | > 100 µM (inactive) | > 100 µM (inactive) | > 100 µM (inactive) | 6.97 µM (inactive) | > 100 µM (inactive) | 32.9 µM (inactive) | 98.9 µM (inactive) | > 100 | > 100 µM (inactive) | > 100 µM (inactive) | > 100 µM (inactive) | 74.6 µM (inactive)

From ChEMBL document CHEMBL1201862, “PubChem BioAssay data set” (2004)
